Source: patent publication US20100160251A1, “IMIDAZO COMPOUNDS” (priority 2006, published 2010)

System: γδT lymphocyte
Test: Induction of γδT lymphocyte proliferation, human peripheral blood cells, BrdU labelling after 3 days of culture
Format: cell-based
Protocol: The activity on γδT lymphocyte proliferation is tested in the following way: human peripheral blood cells are cultured in the presence of an RPMI-type culture medium supplemented with L-glutamine (2 mM), penicillin/streptomycin (50 μg/50 IU/ml) and foetal calf serum (10%). The C-glycoside derivatives are added at various concentrations (10 to 0.05 mM), along with phytohemagglutin (PHA at […]), a positive control for lymphocyte proliferation.

In the case of `CC(=O)C[C@H]1O[C@H](CO)[C@@H](O[C@@H]2O[C@H](CO)[C@H](O)[C@H](O)[C@H]2O)[C@H](O)[C@H]1O` [Compound 1, 1-(C-β-D-lactopyranosyl)propan-2-one], the “% stimulation relative to the control” value (concentration 0.05 (mM)) was 100%, the “% stimulation relative to the control” value (concentration 0.1 (mM)) was 110% and the “% stimulation relative to the control” value (concentration 0.5 (mM)) was 82%. For the same molecule, the “% stimulation relative to the control” value (concentration 1 (mM)) was 108%, the “% stimulation relative to the control” value (concentration 5 (mM)) was 169% and the “% stimulation relative to the control” value (concentration 10 (mM)) was 214%.
